Assay results published in ChEMBL document CHEMBL1201862, “PubChem BioAssay data set” (2004).
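Assay format: 96-well plates, 48-hour exposure. At the GI50, growth is halved.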 Calls of active or inactive are those of the source. Rule as the data show it: active = GI50 up to about 1.1 µM and inactive = higher.

Tests used:
Assay in all cases: NCI anticancer screen, dose series, 48 h
LXFL 529 = system: LXFL 529
MOLT-4 = system: MOLT-4
NCI-H226 = system: NCI-H226
KM-20L2 = system: KM-20L2
SNB-78 = system: SNB-78
HCT-15 = system: HCT-15
NCI-H522 = system: NCI-H522
DMS-114 = system: DMS-114
SK-OV-3 = system: SK-OV-3
KM12 = system: KM12
M19-MEL = system: M19-MEL
SW-620 = system: SW-620
OVCAR-8 = system: OVCAR-8
SK-MEL-5 = system: SK-MEL-5
COLO 205 = system: COLO 205
UACC-62 = system: UACC-62
M14 = system: M14
LOX IMVI = system: LOX IMVI
SF-295 = system: SF-295
HCT-116 = system: HCT-116
RXF 393 = system: RXF 393
HOP-92 = system: HOP-92
K562 = system: K562
ACHN = system: ACHN
DMS-273 = system: DMS-273
HT-29 = system: HT-29
OVCAR-4 = system: OVCAR-4
HCC 2998 = system: HCC 2998
A498 = system: A498
SNB-19 = system: SNB-19
Malme-3M = system: Malme-3M
RXF 631 = system: RXF 631
TK-10 = system: TK-10
UACC-257 = system: UACC-257
SN12C = system: SN12C
DLD-1 = system: DLD-1
SK-MEL-2 = system: SK-MEL-2
SK-MEL-28 = system: SK-MEL-28
XF498 = system: XF498
OVCAR-3 = system: OVCAR-3
786-0 = system: 786-0
SF-539 = system: SF-539
OVCAR-5 = system: OVCAR-5
SNB-75 = system: SNB-75
SF-268 = system: SF-268
NCI-H23 = system: NCI-H23
RPMI-8226 = system: RPMI-8226
UO-31 = system: UO-31
IGROV-1 = system: IGROV-1
NCI-H460 = system: NCI-H460
CAKI-1 = system: CAKI-1
A549 = system: A549
EKVX = system: EKVX
HOP-62 = system: HOP-62
U-251 = system: U-251
CCRF-CEM = system: CCRF-CEM

Measured: GI50

CNC(=O)NCCCCC(NC(C)=O)C(=O)NCc1ccccc1 (stereo unspecified)
> 100 µM: HCT-15
inactive: LXFL 529 > 100 µM | MOLT-4 > 100 µM | NCI-H226 > 100 µM | KM-20L2 > 100 µM | SNB-78 > 100 µM | NCI-H522 > 100 µM | DMS-114 > 100 µM | SK-OV-3 > 100 µM | KM12 > 100 µM | M19-MEL > 100 µM | SW-620 > 100 µM | OVCAR-8 > 100 µM | SK-MEL-5 > 100 µM | COLO 205 > 100 µM | UACC-62 > 100 µM | M14 > 100 µM | LOX IMVI > 100 µM | SF-295 > 100 µM | HCT-116 > 100 µM | RXF 393 > 100 µM | HOP-92 > 100 µM | K562 > 10 µM | ACHN > 100 µM | DMS-273 > 100 µM | HT-29 > 100 µM | OVCAR-4 > 100 µM | HCC 2998 > 100 µM | A498 > 100 µM | SNB-19 > 100 µM | Malme-3M > 100 µM | RXF 631 > 100 µM | TK-10 > 100 µM | UACC-257 > 100 µM | SN12C > 100 µM | DLD-1 > 100 µM | SK-MEL-2 > 100 µM | SK-MEL-28 > 100 µM | XF498 > 100 µM | OVCAR-3 > 100 µM | 786-0 > 100 µM | SF-539 > 100 µM | OVCAR-5 > 100 µM | SNB-75 47.1 µM | SF-268 > 100 µM | NCI-H23 > 100 µM | RPMI-8226 > 100 µM | UO-31 > 100 µM | IGROV-1 > 100 µM | NCI-H460 > 100 µM | CAKI-1 > 100 µM | A549 > 100 µM | EKVX > 100 µM | HOP-62 > 100 µM | U-251 > 100 µM | CCRF-CEM > 100 µM
